Like-named read-outs stand apart in the source and are kept apart here.
Key:
[1] = Total and unbound drug concentrations in blood and liver of Z α1‐antitrypsin transgenic mice; type: in vivo; details: for concentration at 123 h / concentration at 128 h / concentration at 339 h / concentration at 483 h: female, mouse, oral
Method: GSK716 was evaluated in a transgenic mouse model with an engineered random insertion of the human Z α1‐antitrypsin gene (Teckman et al, 2004). […] Further, older mice have larger α1‐antitrypsin inclusions that may be more difficult to reverse and any changes would be more difficult to detect than in younger animals. The PK‐PD relationship of GSK716 was explored by dosing Z α1‐antitrypsin transgenic animals with 10, 30 or 100 mg/kg GSK716 three times a day. […] Blood was also harvested for the measurement of monomeric Z α1‐antitrypsin in plasma. Total concentrations of GSK716 were determined by LC‐MS/MS, and the free drug in both tissues was determined using equilibrium dialysis to determine free fraction in the samples, subsequently used to derive unbound concentrations. […] Both free and total drug concentrations of GSK716 at the targeted site of action in the liver were equivalent to those in blood (Table 2).
Male CD‐1 mice, Han Wistar rats or beagle dogs were administered GSK716 as a suspension in 1% w/v aqueous methylcellulose via oral gavage at doses of 1 mg/kg (dog) or 10, 30 and 100 mg/kg (mouse, rat). Blood samples were taken into EDTA, diluted and mixed with acetonitrile containing internal standard (alprazolam) and centrifuged to precipitate proteins. Aliquots of the resultant supernatant were analysed by LC‐MS/MS, and concentrations of GSK716 in blood were determined. Non‐compartmental pharmacokinetic analysis (NCA) was carried out using Phoenix WinNonLin 6.3 (Certara L.P.). Free drug was measured in Z α1‐antitrypsin transgenic mice by dialysing tissue samples in rapid equilibrium dialysis cassettes.
Hemizygous female Z α1‐antitrypsin transgenic mice were 13–15 weeks of age at start of study. Drugs were administered via oral gavage three times a day at 8‐h intervals at 10 ml/Kg as a suspension in aqueous methylcellulose containing 0.5% w/v Tween 80. In life, blood sampling was performed vial tail nick. Animals were housed in licensed, approved housing in the UK with appropriate enrichment. Animals were randomly assigned to groups using manual methods. Histopathology analysis was performed blind.

Serotonin 5HT3 = target: T1, Serotonin 5HT3 (Homo sapiens, UniProt P46098); assay: Off‐target panel: Serotonin 5HT3 (DRX); type: cell-based
T1 sequence (P46098 24-478): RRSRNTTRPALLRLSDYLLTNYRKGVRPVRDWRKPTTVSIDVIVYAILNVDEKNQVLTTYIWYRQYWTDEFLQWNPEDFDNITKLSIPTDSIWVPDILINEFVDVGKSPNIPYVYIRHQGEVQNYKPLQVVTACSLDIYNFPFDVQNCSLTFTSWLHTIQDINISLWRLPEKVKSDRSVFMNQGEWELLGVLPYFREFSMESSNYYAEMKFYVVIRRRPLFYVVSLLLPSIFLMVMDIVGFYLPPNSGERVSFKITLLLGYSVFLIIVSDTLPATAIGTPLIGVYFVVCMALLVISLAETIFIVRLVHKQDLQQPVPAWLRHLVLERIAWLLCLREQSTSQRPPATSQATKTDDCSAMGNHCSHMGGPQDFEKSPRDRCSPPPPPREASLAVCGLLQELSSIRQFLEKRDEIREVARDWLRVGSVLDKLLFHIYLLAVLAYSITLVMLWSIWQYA
Method: GSK716 selectivity and PK properties were profiled in order to investigate the suitability of GSK716 for progression into in vivo studies and the potential for taking it forward as a clinical candidate for testing in humans. Since GSK716 results in loss of inhibitory activity of α1‐antitrypsin, the effect of the compound was assessed on other closely related serpins. […] Furthermore, there were no off‐target effects in a panel of assays considered predictive of known safety liabilities that precluded further development of GSK716 (Table EV1).

[2] = Z α1-antitrypsin transgenic (hemizygous), whole blood, 100 mg/kg, 100 mg/kg three times a day, read-out: TOTAL mean concentration ± SD, Blood
[3] = Z α1-antitrypsin transgenic (hemizygous), whole blood, 100 mg/kg, 100 mg/kg three times a day, read-out: UNBOUND mean concentration ± SD, Blood
[4] = hemizygous Z α1-antitrypsin transgenic, liver, 100 mg/kg three times a day, read-out: TOTAL mean concentration ± SD, Liver

## CCC[C@@H](NC(=O)c1cccc2c1CC(=O)N2)[C@@H](O)c1cccc(F)c1C [GSK716]
[1]; 30 mg/kg three times a day, time 128 h
  UNBOUND mean concentration ± SD, Liver: 0.075 (± 0.04 µM
[1]; Z α1-antitrypsin transgenic (hemizygous), liver, 10 mg/kg, 10 mg/kg three times a day, read-out: TOTAL mean concentration ± SD, Liver
  concentration at 123 h: 3.5 µM
[1]; Z α1-antitrypsin transgenic (hemizygous), liver, 10 mg/kg, 10 mg/kg three times a day, read-out: UNBOUND mean concentration ± SD, Liver
  concentration at 123 h: 0.035 µM
[1]; Z α1-antitrypsin transgenic (hemizygous), liver, 10 mg/kg, 10 mg/kg three times a day, time 128 h, read-out: TOTAL mean concentration ± SD, Liver
  concentration at 128 h: 2.1 µM
[1]; Z α1-antitrypsin transgenic (hemizygous), liver, 10 mg/kg, 10 mg/kg three times a day, time 128 h, read-out: UNBOUND mean concentration ± SD, Liver
  concentration at 128 h: 0.028 µM
[1]; Z α1-antitrypsin transgenic (hemizygous), liver, 30 mg/kg, 30 mg/kg three times a day, read-out: TOTAL mean concentration ± SD, Liver
  concentration at 123 h: 6.7 µM
[1]; Z α1-antitrypsin transgenic (hemizygous), liver, 30 mg/kg, 30 mg/kg three times a day, read-out: UNBOUND mean concentration ± SD, Liver
  concentration at 123 h: 0.091 µM
[1]; Z α1-antitrypsin transgenic (hemizygous), liver, 30 mg/kg, 30 mg/kg three times a day, time 128 h, read-out: TOTAL mean concentration ± SD, Liver
  concentration at 128 h: 8.3 µM
[1]; Z α1-antitrypsin transgenic (hemizygous), liver, 100 mg/kg, 100 mg/kg three times a day, read-out: TOTAL mean concentration ± SD, Liver
  concentration at 123 h: 40.9 µM
[1]; Z α1-antitrypsin transgenic (hemizygous), liver, 100 mg/kg, 100 mg/kg three times a day, read-out: UNBOUND mean concentration ± SD, Liver
  concentration at 123 h: 1.05 µM
[1]; Z α1-antitrypsin transgenic (hemizygous), liver, 100 mg/kg, 100 mg/kg three times a day, time 128 h, read-out: TOTAL mean concentration ± SD, Liver
  concentration at 128 h: 28.4 µM
[1]; Z α1-antitrypsin transgenic (hemizygous), liver, 100 mg/kg, 100 mg/kg three times a day, time 128 h, read-out: UNBOUND mean concentration ± SD, Liver
  concentration at 128 h: 0.679 µM
[1]; Z α1-antitrypsin transgenic (hemizygous), whole blood, 10 mg/kg, 10 mg/kg three times a day, read-out: TOTAL mean concentration ± SD, Blood
  concentration at 123 h: 8.7 µM
[1]; Z α1-antitrypsin transgenic (hemizygous), whole blood, 10 mg/kg, 10 mg/kg three times a day, read-out: UNBOUND mean concentration ± SD, Blood
  concentration at 123 h: 0.018 µM
[1]; Z α1-antitrypsin transgenic (hemizygous), whole blood, 10 mg/kg, 10 mg/kg three times a day, time 128 h, read-out: TOTAL mean concentration ± SD, Blood
  concentration at 128 h: 7.7 µM
[1]; Z α1-antitrypsin transgenic (hemizygous), whole blood, 10 mg/kg, 10 mg/kg three times a day, time 128 h, read-out: UNBOUND mean concentration ± SD, Blood
  concentration at 128 h: 0.009 µM
[1]; Z α1-antitrypsin transgenic (hemizygous), whole blood, 30 mg/kg, 30 mg/kg three times a day, read-out: TOTAL mean concentration ± SD, Blood
  concentration at 123 h: 14 µM
[1]; Z α1-antitrypsin transgenic (hemizygous), whole blood, 30 mg/kg, 30 mg/kg three times a day, read-out: UNBOUND mean concentration ± SD, Blood
  concentration at 123 h: 0.061 µM
[1]; Z α1-antitrypsin transgenic (hemizygous), whole blood, 30 mg/kg, 30 mg/kg three times a day, time 128 h, read-out: TOTAL mean concentration ± SD, Blood
  concentration at 128 h: 13 µM
[1]; Z α1-antitrypsin transgenic (hemizygous), whole blood, 30 mg/kg, 30 mg/kg three times a day, time 128 h, read-out: UNBOUND mean concentration ± SD, Blood
  concentration at 128 h: 0.051 µM
[1]; [2]
  concentration at 123 h: 33 µM
  concentration at 339 h: 30 µM
[1]; [3]
  concentration at 123 h: 0.49 µM
  concentration at 339 h: 0.529 µM
[1]; Z α1-antitrypsin transgenic (hemizygous), whole blood, 100 mg/kg, 100 mg/kg three times a day, time 128 h, read-out: TOTAL mean concentration ± SD, Blood
  concentration at 128 h: 20 µM
[1]; Z α1-antitrypsin transgenic (hemizygous), whole blood, 100 mg/kg, 100 mg/kg three times a day, time 128 h, read-out: UNBOUND mean concentration ± SD, Blood
  concentration at 128 h: 0.18 µM
[1]; hemizygous Z α1-antitrypsin transgenic, blood, 100 mg/kg three times a day, read-out: TOTAL mean concentration ± SD, Blood
  concentration at 483 h: 22 µM
[1]; hemizygous Z α1-antitrypsin transgenic, blood, 100 mg/kg three times a day, read-out: UNBOUND mean concentration ± SD, Blood
  concentration at 483 h: 0.561 µM
[1]; [4]
  concentration at 339 h: 84.6 µM
  concentration at 483 h: 42.4 µM
Serotonin 5HT3
  EC50: > 50.1 µM
  IC50: 31.6 µM
